Results published in patent US20070167408A1, “NOVEL ALKYL PHOSPHOLIPID DERIVATIVES WITH REDUCED CYTOTOXICITY AND USES THEREOF” (ZENTARIS GmbH, priority 2005, published 2007).
In brackets after ≈: the same amount, converted by molar mass.

How the values were obtained:
[1] = test system: Aspergillus fumigatus ATCC 204305; assay: Anti-fungal broth microdilution (MIC), fungus A; type: cell-based; details: filamentous protocol, more than 50% growth inhibition, 48 to 72 h
Experimental: (§1) Anti-fungal activity of selected compounds of the invention was assessed by means of anti-fungal susceptibility tests as follows.
(§2) The antifungal activities of the compounds of the invention against different fungi were measured according to standard broth microdilution methods of the US National Committee for Clinical Laboratory standards (NCCLS) for yeasts (NCCLS document M27-A, 1997) and filamentous fungi (NCCLS document M38-A, 2002).
(§3) Stock solutions of compounds of the invention were freshly prepared on the days of experiments equal to 1.28 mg/10 ml media. Serial dilutions were performed to achieve the following testing concentrations: 64 μg/ml, 32 μg/ml, 16 μg/ml, 8 μg/ml, 4 μg/ml, 2 μg/ml, 1 μg/ml, 0.5 μg/ml, 0.25 μg/ml and 0.125 μg/ml.
(§4) An inoculum of 10^6 CFU/ml of the fungi strain was prepared in the appropriate medium and transferred to test tubes for incubation.
(§5) The method is used to determine the minimum inhibitory concentrations (MIC) of drugs on fungi strains. […] For the filamentous fungi protocol, MIC determination took place after 48 to 72 h of culture at 35° C. and was defined at that concentration which produced more than 50% visible growth inhibition.

[2] = test system: Aspergillus fumigatus 322-384; assay: Anti-fungal broth microdilution (MIC), fungus B; type: cell-based; details: filamentous protocol, more than 50% growth inhibition, 48 to 72 h
Experimental: as §1, §2, §3, §4, §5

[3] = test system: Aspergillus fumigatus 040-200167; assay: Anti-fungal broth microdilution (MIC), fungus C; type: cell-based; details: filamentous protocol, more than 50% growth inhibition, 48 to 72 h
Experimental: as §1, §2, §3, §4, §5

[4] = test system: Candida albicans ATCC 10231; assay: Anti-fungal broth microdilution (MIC), fungus D; type: cell-based; details: yeast protocol, more than 80% inhibition, 48 h
Experimental: as §1, §2, §3, §4, §5

[5] = test system: Candida albicans ATCC 90028; assay: Anti-fungal broth microdilution (MIC), fungus E; type: cell-based; details: yeast protocol, more than 80% inhibition, 48 h
Experimental: as §1, §2, §3, §4, §5

Candida albicans TS3 = assay: Anti-fungal broth microdilution (MIC), fungus F; type: cell-based; details: yeast protocol, more than 80% inhibition, 48 h
Experimental: as §1, §2, §3, §4, §5

[6] = test system: Candida parapsilosis ATCC 22019; assay: Anti-fungal broth microdilution (MIC), fungus G; type: cell-based; details: yeast protocol, more than 80% inhibition, 48 h
Experimental: as §1, §2, §3, §4, §5

[7] = test system: Cryptococcus neoformans ATCC 90112; assay: Anti-fungal broth microdilution (MIC), fungus H; type: cell-based; details: yeast protocol, more than 80% inhibition, 48 h
Experimental: as §1, §2, §3, §4, §5

[8] = test system: Cryptococcus neoformans H99; assay: Anti-fungal broth microdilution (MIC), fungus I; type: cell-based; details: yeast protocol, more than 80% inhibition, 48 h
Experimental: as §1, §2, §3, §4, §5

[9] = test system: Cryptococcus gattii ATCC 32608; assay: Anti-fungal broth microdilution (MIC), fungus J; type: cell-based; details: yeast protocol, more than 80% inhibition, 48 h
Experimental: as §1, §2, §3, §4, §5

[10] = test system: Trypanosoma cruzi (Tulahuan-LACZ amstigotes in PEM); assay: In vitro drug activity assay, protozoon A; type: cell-based; details: amastigotes in murine peritoneal macrophages, 3 days
Experimental: (§6) In vitro activity of selected compounds of the invention against different protozoa was assessed as follows.
Murine (CD1) peritoneal macrophages were harvested 24 hours after starch induction and dispensed into 96-well plates at a concentration of 4×10^5 mL. After 24 hours, the cells were infected with Trypanosoma cruzi Tulahuan LAC-Z amastigotes (grown and cultured according to Buckner et al., Infection and Immunity 1999, 67(1): 403-409). 24 hours later, the infected cells were exposed to the test compounds (compounds of the invention as well as known prior art compounds) for 3 days and 50 μL of 500 μM CPRG-1% Nonidet P-40 was added to each well. The plates were read after 2 to 5 hours at 570 nm (Buckner et al., Antimicrobial Agents and Chemotherapy 1996, 40(11): 2592-2597). ED50 values were calculated with Msxlfit (IDBS).
(§7) The following protozoa were assessed: • A) Trypanosoma cruzi (Tulahuan-LACZ amstigotes in PEM, Lorente S O et al., Antimicrobial agents and chemotherapy 2004, 48(8): 2937-2950; Buckner et al., Infection and Immunity 1999, 67(1): 403-409; Buckner et al., Antimicrobial Agents and Chemotherapy 1996, 40(11): 2592-2597) • B) Trypanosoma brucei rhodesiense (strain STIB900, Lorente S O et al., Antimicrobial agents and chemotherapy 2004, 48(8): 2937-2950; Habtemariam S, BMC Pharmacology 2003, 3:6) • C) Plasmodium falciparum (strain K1, Korsinczky M et al., Antimicrobial agents and chemotherapy 2000, 44(8): 2100-2108; Thaitong S and Beale G H, Trans. R. Soc. Trop. Med. Hyg. 1981, 75: 271-273; Trager W and Jensen J B, Science 1976, 193: 673-675) • D) Plasmodium faiciparum (strain 3D7, Mu et al., PLoS Biology 2005, 3(10): e335)

[11] = test system: Trypanosoma brucei rhodesiense (strain STIB900); assay: In vitro drug activity assay, protozoon B; type: cell-based; details: bloodstream form trypomastigotes, 72 hours, Alamar Blue
Experimental: as §6
Trypanosoma brucei rhodesiense STIB900 bloodstream form trypomastigotes were maintained in HMI-18 medium (Hirumi H, Hirumi K, J Parasitol. 1989, 75(6):985-989) with 15% heat-inactivated fetal calf serum at 37° C., 5% CO2, humidified atmosphere. Trypomastigotes were washed and resuspended in fresh medium at a concentration of 2×10^5 mL. Test compounds were given to the trypomastigotes and plates were incubated for 72 hours at 37° C., 5% CO2, humidified atmosphere. At 72 hours the plates were assessed microscopically before Alamar Blue was added (Raz et al., Acta Trop. 1997, 68: 139-147). Plates were read after 5 to 6 hours at EX/EM 530/585 nm with a filter cutoff at 550 nm. ED50 values were calculated with Msxlfit (IDBS).
as §7

[12] = test system: Plasmodium falciparum (strain K1); assay: In vitro drug activity assay, protozoon C; type: cell-based; details: strain K1, 3[H]-hypoxanthine method
Experimental: as §6
(§8) Plasmodium falciparum strain K1 and strain 3D7 parasites were cultured according to Trager W and Jensen J B (Science 1976, 193: 673-675). In vitro drug susceptibility assays with the test compounds were carried out according to Korsinczky M et al. (Antimicrobial agents and chemotherapy 2000, 44(8): 2100-2108) and Fivelman Q L et al. (Antimicrobial agents and chemotherapy 2004, 48(11): 4097-4102) using a ^3[H]-hypoxanthine radioisotope method. ED50 values were calculated with Msxlfit (IDBS).
as §7

[13] = test system: Plasmodium faiciparum (strain 3D7); assay: In vitro drug activity assay, protozoon D; type: cell-based, Plasmodium falciparum; details: strain 3D7, 3[H]-hypoxanthine method
Experimental: as §6, §8, §7

[14] = test system: Moraxella catarrhalis DMS 11994 (ATCC 43617); assay: Anti-bacterial bouillon microdilution assay (MIC), bacterium D; type: cell-based; details: 24 h
Experimental: (§9) Selected compounds of the invention were tested in a bouillon microdilution assay method according to the DIN 58940 (www.din.de) guidelines for determination of susceptibility of bacterial strains with regard to cell growth inhibition. The assay method quantifies bacterial cell growth which corresponds to the turbidity of the liquid culture medium by photometric measurement carried out at 595 nm.
(§10) The method of MIC determination was performed according to DIN 58940-5. The volumina were adapted according to the microdilution method as described in DIN 58940-7 guideline.
(§11) Dependent on water solubility, compounds of the invention were dissolved either in water or ethanol in a concentration of 10 mg/ml. Subsequently, the stock was further diluted in water to a concentration of 512 μg/ml. The following serial dilutions (factor 2) were performed in water resulting in the following […] testing concentrations: 256 μg/ml, 128 μg/ml, 64 μg/ml, 32 μg/ml, 16 μg/ml, 8 μg/ml, 4 μg/ml, 2 μg/ml, 1 μg/ml, 0.5 μg/ml, 0.25 μg/ml and 0.125 μg/ml. Diluted compounds of the invention were transferred in 100 μl volume to the microtiter plate wells.
(§12) Pre-cultures of bacteria were grown in appropriate liquid media (refer to ATCC webpage, www.atcc.org) and afterwards were inoculated in corresponding liquid medium. 100 μl of the inoculums [adjusted to an amount of app. 1×10^6 microorganisms per ml (range of 10^5-10^8 microorganisms per ml)] were added to each of the testing compound concentrations and cultivated under the appropriate conditions.
(§13) Before and after incubation, bacterial growth was determined by photometric analysis against a positive control containing growing bacteria without compound and a sterile/negative control containing only the medium.

[15] = test system: Bacteroides fragilis DSM 2151 (ATCC 25285); assay: Anti-bacterial bouillon microdilution assay (MIC), bacterium E; type: cell-based; details: anaerob, 24 h
Experimental: as §9, §10, §11, §12, §13

Row | SMILES | MIC, fungus A [1] | MIC, fungus B [2] | MIC, fungus C [3] | MIC, fungus D [4] | MIC, fungus E [5] | MIC, fungus F (Candida albicans TS3) | MIC, fungus G [6] | MIC, fungus H [7] | MIC, fungus I [8] | MIC, fungus J [9] | ED50 (μg/mL), protozoon A [10] | ED50 (μg/mL), protozoon B [11] | ED50 (μg/mL), protozoon C [12] | ED50 (μg/mL), protozoon D [13] | MIC, bacterium D [14] | MIC, bacterium E [15]
1 | CCCCCCCCCCCCCCCCOP(=O)([O-])OC1CC[N+](C)(Cc2ccccc2)CC1 (stereo not drawn) [Compound 1, Phosphoric acid 1-benzyl-1-methyl-piperidin-4-yl ester hexadecyl ester] | 2 µg/mL (≈ 3.92 µM) | 2 µg/mL (≈ 3.92 µM) | 4 µg/mL (≈ 7.85 µM) | 2 µg/mL (≈ 3.92 µM) | 1 µg/mL (≈ 1.96 µM) | 1.5 µg/mL (≈ 2.94 µM) | 3 µg/mL (≈ 5.89 µM) | 1.5 µg/mL (≈ 2.94 µM) | 2 µg/mL (≈ 3.92 µM) | 1 µg/mL (≈ 1.96 µM) | 1.71 µg/mL (≈ 3.35 µM) | 18.80 µg/mL (≈ 36.9 µM) | 6.93 µg/mL (≈ 13.6 µM) | 9.97 µg/mL (≈ 19.6 µM) | – | –
2 | CCCCCCCCCCCCCCCCOP(=O)([O-])OCC[N+]12CCC(CC1)CC2 [Compound 3, Phosphoric acid 2-(1-aza-bicyclo[2.2.2]oct-1-yl)-ethyl ester hexadecyl ester] | 3 µg/mL (≈ 6.53 µM) | 2 µg/mL (≈ 4.35 µM) | 4 µg/mL (≈ 8.7 µM) | 1 µg/mL (≈ 2.18 µM) | 1 µg/mL (≈ 2.18 µM) | 2 µg/mL (≈ 4.35 µM) | 2 µg/mL (≈ 4.35 µM) | 1.5 µg/mL (≈ 3.26 µM) | 1 µg/mL (≈ 2.18 µM) | 0.75 µg/mL (≈ 1.63 µM) | 0.33 µg/mL (≈ 0.718 µM) | 25.03 µg/mL (≈ 54.5 µM) | 8.03 µg/mL (≈ 17.5 µM) | 2.25 µg/mL (≈ 4.9 µM) | 8 µg/mL (≈ 17.4 µM) | 128 µg/mL (≈ 278 µM)
